Laboratory results from publication PMC7708037, “Targeting OGG1 arrests cancer cell proliferation by inducing replication stress” (Nucleic Acids Research, 2020).

Key:
[1] = parameters: method as in PMID 30442810; settings: cited from earlier work
A3 cells = experiment: Cell cycle distribution by flow cytometry; format: cell-based, human; settings: 10 μM
Description: At the indicated time points, compound/dox treated cells were incubated in medium containing 10 μM 5-ethynyl-2′-deoxyuridine (EdU) (Thermo Fisher, A10044) for 20 min. Next, cells were fixed in cold 70% ethanol overnight. The azide alkyne Huisgen cycloaddition (‘Click reaction’) was carried out according to the Click-iT EdU Imaging Manual (Thermo Fisher) using various fluorescent dyes: Alexa Fluor® 488 azide (Thermo Fisher, A10266), Alexa Fluor® 647 azide (Thermo Fisher, A10277), or TAMRA azide (Thermo Fisher, T10182), depending on assay conditions. […] Data was analyzed using Kaluza® Flow Analysis Software (Beckman Coulter). […]
untreated parental HEK293T. […] Statistical significance was determined using Mann Witney test (**, P<0.01, ***, P<0.001 and ****, P<0.0001 , ns, non-significant).
Supplementary Fig. S6: 8 -oxodG levels and cell cycle distribution. […] The indicated shNT cells were treated with 250 ng/ml doxycycline for 0, 96, or 144 h, and the amount of genomic 8-oxodG was quantified with LC -MS/MS. […] Cells were treated with 10 µM TH5487 or an equivalent volume DMSO for the indicated times, and the cell cycle distribution was determined by flow cytometry. […] A3 shNT (grey), sh2 (blue), and sh3 (red), were treated with 250 ng/ml doxycycline for 48 –120 h, and the cell cycle distribution was determined with flow cytometry. […]

A3 xenograft tumors = experiment: Mouse xenograft experiment; format: in vivo; settings: A3 subcutaneous tumors in NOD-SCID mice, oral 20 mg/kg, increased to 40 mg/kg
Description: Animal experiments were conducted as per the European directive, ethical guideline and regulations of the regional animal ethical committee Stockholm 2010/63 (N8914). Upon arrival to animal facility, animals were acclimatized in the animal house for a week with ad lib food and water, with a 12 h light cycle and the temperature and humidity set according to laboratory animal guidelines and regulations. For the xenograft experiment involving inducible shRNA, 1 × 10^7 non-targeting luciferase transfected A3 cells in 50% matrigel in PBS were injected into flank region of BALB/c nude mice. Later, mice from non-targeting and shRNA groups were randomly divided into two groups containing eight mice per group. […] Tumor volume was measured using calipers (length × 0.52 × width × width) and bioluminescence images were taken using an IVIS spectrum in vivo imaging system (Perkin-Elmer) after intraperitoneal injection of D-luciferin (150 mg/kg in PBS). […] Following lysis by three freeze-thaw cycles, samples were centrifuged at 20 000 × g for 30 min, and OGG1 in the supernatant was detected by immunoblotting. […]
Figure 7. […] Tumors were excised following termination, and TH5487 target engagement was analyzed by cellular thermal shift assay, using an antibody specific for the human OGG1 protein. […]

[2] = parameters: method as in PMID 30442810; settings: cited from earlier work; remark: listed apart in the source

For `O=C(Nc1ccc(I)cc1)N1CCC(n2c(=O)[nH]c3c(Br)cccc32)CC1` [TH5487], the “Fraction associated with plasma proteins” value [1] is given as “more than 99%”, the Cell cycle distribution (A3 cells) is given as “remained largely constant” and the Sub-G1 population (A3 cells) is given as “accumulation in the sub-G1 population”. The Xenograft growth inhibition (A3 xenograft tumors) was “not able to detect xenograft growth inhibition” and the Tolerability in mice [2] was “well tolerated”.
